Experimental data published in patent US9622997B2, “Methods for treating insomnia” (Lynn Health Science Institute, Inc., priority 2012, dated 2017).
Marks after values point to notes of the source that are not given here.

Experiments:
[1] = system: healthy subjects subjected to a transient insomnia protocol; assay: Transient insomnia protocol (2 hour phase advance), double blind cross-over, overnight PSG and morning self-report; format: in vivo, human
Source text: Twenty-four (24) healthy subjects aged 18-65 years (inclusive) with no insomnia were recruited for this study. […] Individuals were also excluded if they had excessive daytime sleepiness indicated by an Epworth Sleepiness Score (ESS) of >9 or a chronic sleep disturbance indicated by a Pittsburgh Sleep Questionnaire Inventory (PSQI) score of >5. Shift workers or subjects with irregular sleep schedules were excluded. Women of child-bearing potential who used medically acceptable methods of contraception were allowed to participate. Subjects were excluded if they had any of the following: BMI≧30; symptoms of gastroesophageal reflux such as heartburn on a regular basis; history of allergic reaction or hyper-sensitivity to benzodiazepines or CNS depressants; or evidence of any clinically significant medical abnormality or chronic disease indicated on laboratory screen or physical exam. Subjects were also excluded if they had any of the following: a history of alcohol or drug abuse; consume >2 alcoholic beverages on a single day and >14 beverages weekly; or >5 cigarettes a day and could not forego smoking for up to 14 hours while in the sleep lab. Participants abstained from over-the-counter medications within 7 days of the polysomnographic (hereinafter “PSG”) evaluation (except accepted birth control medication, NSAIDS/acetaminophen for infrequent pain not considered clinically significant). Participants abstained from alcohol for 24 hours and caffeine for 6 hours prior to each PSG evaluation. Eligible participants were required to report normal sleep patterns during the week before each PSG defined as a bedtime between 21:00 and 24:00 on at least 5 of 7 consecutive nights, with reported sleep duration between 7-9 hours, and no more than 2 naps a week.
The present study was a single-site study approved by Aspire Institutional Review Board. The study design was a double blind cross-over study. Subjects gave written informed consent prior to any study-related procedures. The study consisted of a screening session and two overnight PSGs. The treatments consisted of baclofen 20 mg and placebo. The screening session consisted of a medical screening visit to determine eligibility and safety for each subject. Eligible subjects were randomized into two treatment sequences based on a random permutation algorithm. One treatment sequence received baclofen 20 mg on the night of the first PSG, then placebo on the night of the second PSG. The other treatment sequence received placebo on the night of the first PSG, then baclofen 20 mg on the night of the second PSG. Subjects were given a 7 day sleep diary to complete immediately prior to the first sleep study. Subjects were given a second 7 day sleep diary to complete immediately prior to the second sleep study. Lights out was determined as two hours earlier than the subject's median habitual bedtime indicated in the diary prior to each PSG. Study drug (baclofen 20 mg or placebo) was administered 90 minutes prior to lights out.
On the PSG nights, respiratory effort and airflow, oxygen saturation, leg and chin EMGs were recorded in addition to the routine PSG measures to exclude subjects with sleep-related breathing disorders and periodic limb movement disorder. […] PSG measures consisted of the following: wake after sleep onset (WASO), total sleep time (TST), sleep onset latency (SOL), sleep efficiency (SE), percent sleep stage 1, percent sleep stage 2, percent sleep stages 3 and 4 combined, percent sleep REM. Self-report measures consisted of the following: subjective TST (sTST), subjective SOL (sSOL), subjective number of awakenings from sleep (sNAS), subjective sleep quality (sSQ). All PSGs were analyzed by one of the authors blinded to the treatment groups. […]

[2] = baclofen vs. placebo; cited from earlier work
[3] = PSG measure, percentage of TST, baclofen 20 mg
[4] = PSG measure, baclofen 20 mg 90 minutes prior to lights out, n=20
[5] = baclofen 20 mg vs placebo, not significant
[6] = baclofen 20 mg vs placebo, p < 0.01
[7] = baclofen 20 mg vs placebo, p < 0.05
[8] = self-report, morning questionnaire, baclofen 20 mg

## NCC(CC(=O)O)c1ccc(Cl)cc1 (stereo not shown) [Baclofen, 4-amino-3-(4-chlorophenyl)-butanoic acid]
[1]; [3]
  REM: 24.1 ± 1.3%
  Stage 1: 2.3 ± 0.3%
  Stage 2: 58.9 ± 2.0%
  Stage 3/4: 14.7 ± 1.4%
[1]; [4]
  SE: 90.6 ± 1.2%
  SOL: 19.4 ± 3.8 min
  TST: 435.4 ± 5.8 min
  WASO: 25.6 ± 4.0 min
[1]; [5]
  SOL Absolute Change: -0.4 min
  sSOL Absolute Change: -1.0 min
  sTST Absolute Change: 0.3 h
[1]; baclofen 20 mg vs placebo, not significant (p=0.067)
  REM Absolute Change: 3.5%
[1]; baclofen 20 mg vs placebo, not significant (p=0.092)
  Stage 2 Absolute Change: −3.9%
[1]; baclofen 20 mg vs placebo, p < 0.001
  Stage 1 Absolute Change: −1.8*** %
[1]; [6]
  TST Absolute Change: 27.7** min
  sNAS Absolute Change: −1.3** #
[1]; [7]
  Stage 3/4 Absolute Change: 2.7* %
  WASO Absolute Change: −28.4* min
  sSQ Absolute Change: −0.5* scale 1-4
[1]; baclofen 20 mg vs zolpidem 10 mg (WASO 9.4 min, SE 3.7%), 2 hr phase advance
  baclofen data better than zolpidem (decrease in WASO, increase in SE): 2-4 fold
[1]; [8]
  sSOL: 25.0 ± 4.1 min
  sTST: 7.1 ± 0.2 h
[1]; self-report, number of awakenings, baclofen 20 mg
  sNAS: 2.4 ± 0.4
[1]; self-report, 1 = good, 2 = average, 3 = below average, 4 = poor, baclofen 20 mg
  sSQ: 1.9 ± 0.2 scale 1-4
[1]; ↑ increase compared to placebo, 20 mg, 2 hour phase-advance, current study
  TST: ↑ 27.7 min
[1]; ↓ decrease compared to placebo, NS, 20 mg, 2 hour phase-advance, current study
  SOL: ↓ 0.4^NS min
[1]; ↓ decrease compared to placebo, 20 mg, 2 hour phase-advance, current study
  wake after sleep onset (WASO), change vs placebo: ↓ 28.3 min
[2]
  decrease in reflux events in other studies: ~40%
